Reference: patent US12157746B2, “Tetrahydro-1H-pyrazino[2,1-a]isoindolylquinoline compounds for the treatment of autoimmune disease” (F. HOFFMANN-LA ROCHE AG, priority 2018, dated 2024)

target: T1, human TLR9 (Homo sapiens, UniProt Q9NR96); experiment: HEK293-Blue-hTLR-9 cells assay; type: cell-based; settings: HEK293-Blue-hTLR9 cells, ODN2006 stimulation, 20 hrs, SEAP reporter; read-out: HEK/hTLR9 IC50
T1 sequence (Q9NR96 26-1032): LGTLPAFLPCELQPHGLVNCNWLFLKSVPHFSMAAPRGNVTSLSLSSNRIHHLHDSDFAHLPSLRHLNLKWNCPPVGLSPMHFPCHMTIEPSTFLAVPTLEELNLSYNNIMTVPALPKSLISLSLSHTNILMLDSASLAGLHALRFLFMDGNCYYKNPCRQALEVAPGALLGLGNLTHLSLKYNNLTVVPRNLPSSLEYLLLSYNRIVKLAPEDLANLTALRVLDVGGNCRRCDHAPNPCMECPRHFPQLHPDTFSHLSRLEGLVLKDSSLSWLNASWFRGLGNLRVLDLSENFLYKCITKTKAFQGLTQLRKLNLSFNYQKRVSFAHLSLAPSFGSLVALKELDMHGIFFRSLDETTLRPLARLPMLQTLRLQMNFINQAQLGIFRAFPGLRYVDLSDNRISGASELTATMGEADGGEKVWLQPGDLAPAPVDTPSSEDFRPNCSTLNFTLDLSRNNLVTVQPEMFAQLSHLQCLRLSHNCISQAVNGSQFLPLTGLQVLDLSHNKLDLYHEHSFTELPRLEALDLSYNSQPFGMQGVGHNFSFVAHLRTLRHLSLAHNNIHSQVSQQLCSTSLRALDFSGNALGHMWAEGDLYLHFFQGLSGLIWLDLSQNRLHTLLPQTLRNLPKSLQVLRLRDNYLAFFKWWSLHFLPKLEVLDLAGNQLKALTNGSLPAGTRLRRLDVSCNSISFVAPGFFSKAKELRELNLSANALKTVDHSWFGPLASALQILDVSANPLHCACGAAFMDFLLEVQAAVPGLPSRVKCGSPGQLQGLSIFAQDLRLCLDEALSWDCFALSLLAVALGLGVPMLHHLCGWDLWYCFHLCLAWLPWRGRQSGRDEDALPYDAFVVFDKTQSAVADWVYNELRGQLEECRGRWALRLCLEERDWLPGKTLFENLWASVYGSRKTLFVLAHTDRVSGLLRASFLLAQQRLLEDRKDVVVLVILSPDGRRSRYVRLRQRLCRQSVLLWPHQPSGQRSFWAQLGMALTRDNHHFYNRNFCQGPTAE
In short: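 Antagonist mode in HEK293-Blue hTLR9 reporter cells (SEAP under NF-κB/AP-1 sites), stimulated with ODN2006 added from a 20 uM solution. Serially diluted compound (1% DMSO final) was incubated 20 hrs at 37° C. Supernatant SEAP was developed with QUANTI-Blue for 2 h at 37° C and read at 620˜655 nm.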

IC50 [µM] | Compound
0.106 | C[C@@H]1CN(c2ccc(C#N)c3ncccc23)C[C@@H]2c3ccc(N4CCNCC4)cc3CN12 [Example 1, 5-[(4R,10bS)-4-methyl-8-piperazin-1-yl-3,4,6,10b-tetrahydro-1H-pyrazino[2,1-a]isoindol-2-yl]quinoline-8-carbonitrile]
0.083 | C[C@@H]1CN(c2ccc(C#N)c3ncccc23)C[C@@H]2c3ccc(N[C@@H]4CNCCOC4)cc3CN12 [Example 56A, 5-[(4R,10bS)-4-methyl-8-[[(6R)-1,4-oxazepan-6-yl]amino]-3,4,6,10b-tetrahydro-1H-pyrazino[2,1-a]isoindol-2-yl]quinoline-8-carbonitrile]
0.0921 | C[C@@H]1CN(c2ccc(C#N)c3ncccc23)C[C@@H]2c3ccc(N[C@H]4CNCCOC4)cc3CN12 [Example 56B, 5-[(4R,10bS)-4-methyl-8-[[(6S)-1,4-oxazepan-6-yl]amino]-3,4,6,10b-tetrahydro-1H-pyrazino[2,1-a]isoindol-2-yl]quinoline-8-carbonitrile]
0.105 | C[C@@H]1CN(c2ccc(C#N)c3ncccc23)C[C@@H]2c3ccc(NCC4COCCN4)cc3CN12 (stereo partly drawn) [Example 57, 5-[(4R,10bS)-4-methyl-8-(morpholin-3-ylmethylamino)-3,4,6,10b-tetrahydro-1H-pyrazino[2,1-a]isoindol-2-yl]quinoline-8-carbonitrile]
0.0843 | C[C@@H]1CN(c2ccc(C#N)c3ncccc23)C[C@@H]2c3ccc(NC[C@@H]4CNCCO4)cc3CN12 [Example 58, 5-[(4R,10bS)-4-methyl-8-[[(2S)-morpholin-2-yl]methylamino]-3,4,6,10b-tetrahydro-1H-pyrazino[2,1-a]isoindol-2-yl]quinoline-8-carbonitrile]
0.0735 | C[C@@H]1CN(c2ccc(C#N)c3ncccc23)C[C@@H]2c3ccc(NC[C@H]4CNCCO4)cc3CN12 [Example 59, 5-[(4R,10bS)-4-methyl-8-[[(2R)-morpholin-2-yl]methylamino]-3,4,6,10b-tetrahydro-1H-pyrazino[2,1-a]isoindol-2-yl]quinoline-8-carbonitrile]
0.0727 | CO[C@@H]1CNC[C@H]1Nc1cc2c(cc1C)[C@H]1CN(c3ccc(C#N)c4ncccc34)C[C@@H](C)N1C2 [Example 63, 5-[(4R,10bS)-8-[[(3R,4R)-4-methoxypyrrolidin-3-yl]amino]-4,9-dimethyl-3,4,6,10b-tetrahydro-1H-pyrazino[2,1-a]isoindol-2-yl]quinoline-8-carbonitrile]
0.125 | CO[C@H]1CNC[C@@H]1N(C)c1ccc2c(c1)CN1[C@H](C)CN(c3ccc(C#N)c4ncccc34)C[C@H]21 [Example 64, 5-[(4R,10bS)-8-[[(3S,4S)-4-methoxypyrrolidin-3-yl]-methyl-amino]-4-methyl-3,4,6,10b-tetrahydro-1H-pyrazino[2,1-a]isoindol-2-yl]quinoline-8-carbonitrile]
0.141 | CO[C@H]1CNCC[C@H]1Nc1ccc2c(c1)CN1[C@H](C)CN(c3ccc(C#N)c4ncccc34)C[C@H]21 [Example 66, 5-[(4R,10bS)-8-[[(3S,4R)-3-methoxy-4-piperidyl]amino]-4-methyl-3,4,6,10b-tetrahydro-1H-pyrazino[2,1-a]isoindol-2-yl]quinoline-8-carbonitrile]
0.074 | C[C@@H]1CN(c2ccc(C#N)c3ncccc23)C[C@@H]2c3ccc(NC[C@@H]4C[C@H](F)CN4)cc3CN12 [Example 70, 5-[(4R,10bS)-8-[[(2S,4S)-4-fluoropyrrolidin-2-yl]methylamino]-4-methyl-3,4,6,10b-tetrahydro-1H-pyrazino[2,1-a]isoindol-2-yl]quinoline-8-carbonitrile]
0.115 | C[C@@H]1CN(c2ccc(C#N)c3ncccc23)C[C@@H]2c3ccc(N4C[C@@H]5CNCCN5C4=O)cc3CN12 [Example 71, 5-[(4R,10bS)-8-[(8aS)-3-oxo-1,5,6,7,8,8a-hexahydroimidazo[1,5-a]pyrazin-2-yl]-4-methyl-3,4,6,10b-tetrahydro-1H-pyrazino[2,1-a]isoindol-2-yl]quinoline-8-carbonitrile]
0.108 | C[C@@H]1CN(c2ccc(C#N)c3ncccc23)C[C@@H]2c3ccc(N4C[C@H]5CNCCN5C4=O)cc3CN12 [Example 72, 5-[(4R,10bS)-8-[(8aR)-3-oxo-1,5,6,7,8,8a-hexahydroimidazo[1,5-a]pyrazin-2-yl]-4-methyl-3,4,6,10b-tetrahydro-1H-pyrazino[2,1-a]isoindol-2-yl]quinoline-8-carbonitrile]
0.136 | C[C@@H]1CN(c2ccc(C#N)c3ncccc23)C[C@@H]2c3ccc(OC[C@@H]4C[C@H](F)CN4)cc3CN12 [Example 74, 5-[(4R,10bS)-8-[[(2S,4S)-4-fluoropyrrolidin-2-yl]methoxy]-4-methyl-3,4,6,10b-tetrahydro-1H-pyrazino[2,1-a]isoindol-2-yl]quinoline-8-carbonitrile]
0.15 | Cc1ccc(N2C[C@@H](C)N3Cc4cc(N[C@H]5CNC[C@H]5F)ccc4[C@H]3C2)c2nccnc12 [Example 76, (4R,10bS)—N-[(3S,4R)-4-fluoropyrrolidin-3-yl]-4-methyl-2-(8-methylquinoxalin-5-yl)-3,4,6,10b-tetrahydro-1H-pyrazino[2,1-a]isoindol-8-amine]
0.141 | C[C@@H]1CN(c2ccc(C(F)(F)F)c3nccnc23)C[C@@H]2c3ccc(N[C@H]4CNC[C@H]4F)cc3CN12 [Example 77, (4R,10bS)—N-[(3S,4R)-4-fluoropyrrolidin-3-yl]-4-methyl-2-[8-(trifluoromethyl)quinoxalin-5-yl]-3,4,6,10b-tetrahydro-1H-pyrazino[2,1-a]isoindol-8-amine]
0.0836 | C[C@@H]1CN(c2ccc(C#N)c3ncsc23)C[C@@H]2c3ccc(N[C@H]4CNC[C@H]4F)cc3CN12 [Example 78, 7-[(4R,10bS)-8-[[(3S,4R)-4-fluoropyrrolidin-3-yl]amino]-4-methyl-3,4,6,10b-tetrahydro-1H-pyrazino[2,1-a]isoindol-2-yl]-1,3-benzothiazole-4-carbonitrile]
0.0636 | C[C@@H]1CN(c2ccc(C#N)c3ncccc23)C[C@@H]2c3cccc(NCCN4CC[C@H](O)C4)c3CN12 [Example 80, 5-[(4R,10bS)-7-[2-[(3S)-3-hydroxypyrrolidin-1-yl]ethylamino]-4-methyl-3,4,6,10b-tetrahydro-1H-pyrazino[2,1-a]isoindol-2-yl]quinoline-8-carbonitrile]
0.126 | C[C@@H]1CN(c2ccc(C#N)c3ncccc23)C[C@@H]2c3cccc(N[C@H]4CNC[C@H]4F)c3CN12 [Example 81, 5-[(4R,10bS)-7-[[(3S,4R)-4-fluoropyrrolidin-3-yl]amino]-4-methyl-3,4,6,10b-tetrahydro-1H-pyrazino[2,1-a]isoindol-2-yl]quinoline-8-carbonitrile]
0.168 | C[C@@H]1CN(c2ccc(C#N)c3ncccc23)C[C@@H]2c3cc(F)c(N4C[C@H](N)[C@@](C)(O)C4)cc3CN12 [Example 83, 5-[(4R,10bS)-8-[(3S,4S)-4-amino-3-hydroxy-3-methyl-pyrrolidin-1-yl]-9-fluoro-4-methyl-3,4,6,10b-tetrahydro-1H-pyrazino[2,1-a]isoindol-2-yl]quinoline-8-carbonitrile]
0.186 | C[C@@H]1CN(c2ccc(C#N)c3ncccc23)C[C@@H]2c3cc(F)c(N4CC5(CNC5)C4)cc3CN12 [Example 84, 5-[(4R,10bS)-8-(2,6-diazaspiro[3.3]heptan-2-yl)-9-fluoro-4-methyl-3,4,6,10b-tetrahydro-1H-pyrazino[2,1-a]isoindol-2-yl]quinoline-8-carbonitrile]
0.164 | [2H]c1ccc2c(N3C[C@@H](C)N4Cc5cc(N6CC7(CNCCO7)C6)ccc5[C@H]4C3)ccc(C#N)c2n1 [Example 90, 5-[(4R,10bS)-4-methyl-8-(5-oxa-2,8-diazaspiro[3.5]nonan-2-yl)-3,4,6,10b-tetrahydro-1H-pyrazino[2,1-a]isoindol-2-yl]-2-deuterio-quinoline-8-carbonitrile]

system: not listed separately; experiment: Human microsomal stability assay; type: in vitro ADME; settings: human liver microsomes 0.5 mg/mL, 37° C., pH 7.4, NADPH regenerating system, 0-30 minutes
In short: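 Human liver microsomes (0.5 mg/mL) with […] compound in 100 mM potassium phosphate, pH 7.4, 37° C; reaction started with NADPH regenerating system after 10 min preincubation. Parent remaining at 0–30 min quantified by LC-MS/MS; clearance binned low (<7.0), medium (7.0-16.2) or high (16.2-23.2) mL/min/kg.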

CL (h) [mL/min/kg] | Compound
6.8 | C[C@@H]1CN(c2ccc(C#N)c3ncccc23)C[C@@H]2c3ccc(N4CCNCC4)cc3CN12 [Example 1, 5-[(4R,10bS)-4-methyl-8-piperazin-1-yl-3,4,6,10b-tetrahydro-1H-pyrazino[2,1-a]isoindol-2-yl]quinoline-8-carbonitrile]
